According to patent US10106556B2, “Heterocyclic compound” (TAKEDA PHARMACEUTICAL COMPANY LIMITED, priority 2015, dated 2018):

Target: T1, His-hMAGL (recombinant polyhistidine tagged human MAGL protein) (Homo sapiens, UniProt Q99685)
T1 construct: made in house; host or cells: E. coli BL21(DE3)
T1 sequence (Q99685 1-303): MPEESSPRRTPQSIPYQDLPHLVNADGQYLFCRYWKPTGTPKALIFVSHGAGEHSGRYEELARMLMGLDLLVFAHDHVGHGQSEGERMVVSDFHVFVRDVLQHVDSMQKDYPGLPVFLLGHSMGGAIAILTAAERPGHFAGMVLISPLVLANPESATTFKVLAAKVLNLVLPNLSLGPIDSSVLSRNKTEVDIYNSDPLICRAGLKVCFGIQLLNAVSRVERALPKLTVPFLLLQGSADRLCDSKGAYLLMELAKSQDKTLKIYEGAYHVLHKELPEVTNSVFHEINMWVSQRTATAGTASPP
Experiment: Measurement of MAGL inhibitory activity (arachidonic acid production from 2-arachidonylglycerol, RapidFire-mass spectrometry)
Format: biochemical
Settings: MAGL inhibitory rate at 10 μM test compound, 60 min preincubation with His-hMAGL, 2-arachidonylglycerol substrate, 10 min reaction at room temperature
Outline: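 Recombinant His-tagged human MAGL converted 2-arachidonylglycerol to arachidonic acid. Reactions received acetonitrile with 3 μM arachidonic acid-d8 as internal standard, and product was quantified by RapidFire SPE (C4) with negative-mode SRM mass spectrometry. Percent inhibition was calculated against compound-free and enzyme-free controls.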

Structure (SMILES): Cc1ccc(OCC2CCN(C(=O)c3ccc4c(c3)NC(=O)CO4)CC2)c(C)n1 [Example 38, 6-((4-(((2,6-dimethylpyridin-3-yl)oxy)methyl)piperidin-1-yl)carbonyl)-2H-1,4-benzoxazin-3(4H)-one]
- inhibition at 10 µM: 84%

Structure (SMILES): COc1ccc(COC2CN(C(=O)c3cc4c(cc3F)OCC(=O)N4)C2)cc1F [Example 348, 7-fluoro-6-((3-((3-fluoro-4-methoxybenzyl)oxy)azetidin-1-yl)carbonyl)-2H-1,4-benzoxazin-3(4H)-one]
- inhibition at 10 µM: 100%

Structure (SMILES): O=C1COc2cc(F)c(C(=O)N3CC(COc4ccc(Cl)cc4-c4ccc(F)nc4)C3)cc2N1 [Example 204, 6-((3-((4-chloro-2-(6-fluoropyridin-3-yl)phenoxy)methyl)azetidin-1-yl)carbonyl)-7-fluoro-2H-1,4-benzoxazin-3(4H)-one]
- inhibition at 10 µM: 100%

Structure (SMILES): Cc1cccc(-c2ccc(OCC3CN(C(=O)c4cc5c(cc4F)OCC(=O)N5)C3)c(F)c2)n1 [Example 230, 7-fluoro-6-((3-((2-fluoro-4-(6-methylpyridin-2-yl)phenoxy)methyl)azetidin-1-yl)carbonyl)-2H-1,4-benzoxazin-3(4H)-one]
- inhibition at 10 µM: 95%

Structure (SMILES): COC(=O)c1cc(F)ccc1OCC1CCN(C(=O)c2cc3c(cc2F)OCC(=O)N3)CC1 [Example 85, methyl 5-fluoro-2-((1-((7-fluoro-3-oxo-3,4-dihydro-2H-1,4-benzoxazin-6-yl)carbonyl)piperidin-4-yl)methoxy)benzoate]
- inhibition at 10 µM: 102%

Structure (SMILES): O=C1COc2cc(F)c(C(=O)N3CC(COc4ccc(-c5cccc(F)n5)cc4F)C3)cc2N1 [Example 289, 7-fluoro-6-((3-((2-fluoro-4-(6-fluoropyridin-2-yl)phenoxy)methyl)azetidin-1-yl)carbonyl)-2H-1,4-benzoxazin-3(4H)-one]
- inhibition at 10 µM: 88%

Structure (SMILES): Cn1cccc1-c1cc(Cl)ccc1OCC1CN(C(=O)c2cc3c(cc2F)OCC(=O)N3)C1 [Example 219, 6-((3-((4-chloro-2-(1-methyl-1H-pyrrol-2-yl)phenoxy)methyl)azetidin-1-yl)carbonyl)-7-fluoro-2H-1,4-benzoxazin-3(4H)-one]
- inhibition at 10 µM: 101%

Structure (SMILES): O=C1COc2ccc(C(=O)N3CCC(COc4cccc(C(F)(F)F)c4)CC3)cc2N1 [Example 57, 6-((4-((3-(trifluoromethyl)phenoxy)methyl)piperidin-1-yl)carbonyl)-2H-1,4-benzoxazin-3(4H)-one]
- inhibition at 10 µM: 99%

Structure (SMILES): CC(Oc1ccc(F)c(F)c1)C1CN(C(=O)c2cc3c(cc2F)OCC(=O)N3)C1 (stereo not drawn) [Example 313, 6-((3-(1-(3,4-difluorophenoxy)ethyl)azetidin-1-yl)carbonyl)-7-fluoro-2H-1,4-benzoxazin-3(4H)-one]
- % inhibition (10 μM) (10 µM): 103%

Structure (SMILES): CC(C)(C)c1ccccc1OCC1CN(C(=O)c2ccc3c(c2)NC(=O)CO3)C1 [Example 146, 6-((3-((2-tert-butylphenoxy)methyl)azetidin-1-yl)carbonyl)-2H-1,4-benzoxazin-3(4H)-one]
- inhibition at 10 µM: 97%

Structure (SMILES): O=C1COc2cc(Cl)c(C(=O)N3CCC(COc4ccc(F)cc4Cl)CC3)cc2N1 [Example 86, 7-chloro-6-((4-((2-chloro-4-fluorophenoxy)methyl)piperidin-1-yl)carbonyl)-2H-1,4-benzoxazin-3(4H)-one]
- inhibition at 10 µM: 98%

Structure (SMILES): O=C1COc2cc(F)c(C(=O)N3CC(OCc4ccc(Cl)cc4Cl)C3)cc2N1 [Example 324, 6-((3-((2,4-dichlorobenyzl)oxy)azetidin-1-yl)carbonyl)-7-fluoro-2H-1,4-benzoxazin-3(4H)-one]
- inhibition at 10 µM: 102%

Structure (SMILES): N#Cc1cc(C(F)(F)F)ccc1OCC1CCN(C(=O)c2ccc3c(c2)NC(=O)CO3)CC1 [Example 67]
- inhibition at 10 µM: 101%

Structure (SMILES): O=C1COc2cc(F)c(C(=O)N3CC(COc4cnc5c(c4)CCCO5)C3)cc2N1 [Example 279, 6-((3-((3,4-dihydro-2H-pyrano[2,3-b]pyridin-6-yloxy)methyl)azetidin-1-yl)carbonyl)-7-fluoro-2H-1,4-benzoxazin-3(4H)-one]
- inhibition at 10 µM: 101%

Structure (SMILES): O=C1COc2cc(F)c(C(=O)N3CC(OCc4ccccc4OC(F)F)C3)cc2N1 [Example 341]
- inhibition at 10 µM: 101%

Structure (SMILES): O=C1COc2ccc(C(=O)N3CCC(COc4ccc5[nH]ncc5c4)CC3)cc2N1 [Example 61, 6-((4-((1H-indazol-5-yloxy)methyl)piperidin-1-yl)carbonyl)-2H-1,4-benzoxazin-3(4H)-one]
- inhibition at 10 µM: 94%

Structure (SMILES): Cc1nc2c(cc1C(=O)N1CCC(COc3ccc(F)cc3Cl)CC1)NC(=O)CO2 [Example 145, 7-((4-((2-chloro-4-fluorophenoxy)methyl)piperidin-1-yl)carbonyl)-6-methyl-1H-pyrido[2,3-b][1,4]oxazin-2(3H)-one]
- inhibition at 10 µM: 88%

Structure (SMILES): COc1cc(F)ccc1OCC1CN(C(=O)c2cc3c(cc2F)OCC(=O)N3)C1 [Example 121, 7-fluoro-6-((3-((4-fluoro-2-methoxyphenoxy)methyl)azetidin-1-yl)carbonyl)-2H-1,4-benzoxazin-3(4H)-one]
- inhibition at 10 µM: 99%

Structure (SMILES): N#Cc1ccc(OCC2CCN(C(=O)c3cc4c(cc3F)OCC(=O)N4)CC2)c(Cl)c1 [Example 70, 3-chloro-4-((1-((7-fluoro-3-oxo-3,4-dihydro-2H-1,4-benzoxazin-6-yl)carbonyl)piperidin-4-yl)methoxy)benzonitrile]
- inhibition at 10 µM: 100%

Structure (SMILES): O=C1COc2cc(F)c(C(=O)N3CC(COc4ccccc4-c4ccccc4)C3)cc2N1 [Example 109, 6-((3-((biphenyl-2-yloxy)methyl)azetidin-1-yl)carbonyl)-7-fluoro-2H-1,4-benzoxazin-3(4H)-one]
- inhibition at 10 µM: 103%

Structure (SMILES): O=C1COc2cc(F)c(C(=O)N3CC(CC(F)(F)c4ccc(F)cc4Cl)C3)cc2N1 [Example 356, 6-((3-(2-(2-chloro-4-fluorophenyl)-2,2-difluoroethyl)azetidin-1-yl)carbonyl)-7-fluoro-2H-1,4-benzoxazin-3(4H)-one]
- inhibition at 10 µM: 102%

Structure (SMILES): Cc1ccnc(-c2ccc(OCC3CN(C(=O)c4cc5c(cc4F)OCC(=O)N5)C3)c(F)c2)c1 [Example 276]
- inhibition at 10 µM: 97%

Structure (SMILES): O=C1COc2cc(F)c(C(=O)N3CC(COc4ccccc4C4CC4)C3)cc2N1 [Example 168, 6-((3-((2-cyclopropylphenoxy)methyl)azetidin-1-yl)carbonyl)-7-fluoro-2H-1,4-benzoxazin-3(4H)-one]
- inhibition at 10 µM: 101%

Structure (SMILES): O=C1COc2ccc(C(=O)N3CCC(COc4nc5ccccc5s4)CC3)cc2N1 [Example 62, 6-((4-((1,3-benzothiazol-2-yloxy)methyl)piperidin-1-yl)carbonyl)-2H-1,4-benzoxazin-3(4H)-one]
- inhibition at 10 µM: 86%

Structure (SMILES): O=C1COc2cc(F)c(C(=O)N3CC(COc4ccc(F)c(Cl)c4)C3)cc2N1 [Example 131, 6-((3-((3-chloro-4-fluorophenoxy)methyl)azetidin-1-yl)carbonyl)-7-fluoro-2H-1,4-benzoxazin-3(4H)-one]
- inhibition at 10 µM: 101%

Structure (SMILES): O=C1COc2cc(F)c(C(=O)N3CC(COc4ccc(-c5cncc(F)c5)cc4F)C3)cc2N1 [Example 234, 7-fluoro-6-((3-((2-fluoro-4-(5-fluoropyridin-3-yl)phenoxy)methyl)azetidin-1-yl)carbonyl)-2H-1,4-benzoxazin-3(4H)-one]
- inhibition at 10 µM: 97%

Structure (SMILES): O=C1COc2ccc(C(=O)N3CCC(COc4cccc(F)c4Cl)CC3)cc2N1 [Example 56, 6-((4-((2-chloro-3-fluorophenoxy)methyl)piperidin-1-yl)carbonyl)-2H-1,4-benzoxazin-3(4H)-one]
- inhibition at 10 µM: 101%

Structure (SMILES): Cc1cc(-c2ccc(OCC3CN(C(=O)c4cc5c(cc4F)OCC(=O)N5)C3)c(F)c2)nn1C [Example 253, 6-((3-((4-(1,5-dimethyl-1H-pyrazol-3-yl)-2-fluorophenoxy)methyl)azetidin-1-yl)carbonyl)-7-fluoro-2H-1,4-benzoxazin-3(4H)-one]
- inhibition at 10 µM: 102%

Structure (SMILES): COc1cccc(COC2CN(C(=O)c3cc4c(cc3F)OCC(=O)N4)C2)c1 [Example 328, 7-fluoro-6-((3-((3-methoxybenzyl)oxy)azetidin-1-yl)carbonyl)-2H-1,4-benzoxazin-3(4H)-one]
- inhibition at 10 µM: 101%

Structure (SMILES): N#Cc1ccc(OCC2CCN(C(=O)c3ccc4c(c3)NC(=O)CO4)CC2)c(Cl)c1 [Example 52, 3-chloro-4-((1-((3-oxo-3,4-dihydro-2H-1,4-benzoxazin-6-yl)carbonyl)piperidin-4-yl)methoxy)benzonitrile]
- inhibition at 10 µM: 102%

Structure (SMILES): O=C1COc2ccc(C(=O)N3CCC(COc4cccc(OC(F)(F)F)c4)CC3)cc2N1 [Example 54, 6-((4-((3-(trifluoromethoxy)phenoxy)methyl)piperidin-1-yl)carbonyl)-2H-1,4-benzoxazin-3(4H)-one]
- inhibition at 10 µM: 98%

Structure (SMILES): COCC(Oc1ccc(Cl)cc1F)C1CN(C(=O)c2cc3c(cc2F)OCC(=O)N3)C1 (stereo not drawn) [Example 309, 6-((3-(1-(4-chloro-2-fluorophenoxy)-2-methoxyethyl)azetidin-1-yl)carbonyl)-7-fluoro-2H-1,4-benzoxazin-3(4H)-one]
- inhibition at 10 µM: 98%

Structure (SMILES): CC(Oc1ccc(F)c(F)c1)C1CN(C(=O)c2cc3c(cc2F)OCC(=O)N3)C1 (stereo not drawn) [Example 304, 6-((3-(1-(3,4-difluorophenoxy)ethyl)azetidin-1-yl)carbonyl)-7-fluoro-2H-1,4-benzoxazin-3(4H)-one]
- inhibition at 10 µM: 99%
